Publication PMC11435058, “Synthesis of New Thiazole-Privileged Chalcones as Tubulin Polymerization Inhibitors with Potential Anticancer Activities” (Pharmaceuticals, 2024)

Columns and labels:
[1] = test system: NCI-H460; assay: NCI-60 anticancer screen (SRB; single dose and five doses); conditions: Homo sapiens
[2] = test system: KM12; assay: as above; conditions: Homo sapiens
[3] = test system: HCT-15; assay: as above; conditions: Homo sapiens
[4] = test system: A549/ATCC; assay: as above; conditions: Homo sapiens
[5] = test system: K-562; assay: as above; conditions: Homo sapiens
[6] = test system: SNB-75; assay: as above
[7] = test system: LOX IMVI; assay: as above; conditions: Homo sapiens
[8] = test system: RPMI-8226; assay: as above; conditions: Homo sapiens
[9] = test system: OVCAR-4; assay: as above; conditions: Homo sapiens
[10] = test system: HOP-92; assay: as above; conditions: Homo sapiens
[11] = test system: HCC-2998; assay: as above
[12] = test system: SN12C; assay: as above; conditions: Homo sapiens
[13] = test system: TK-10; assay: as above; conditions: Homo sapiens
[14] = test system: A498; assay: as above; conditions: Homo sapiens
[15] = test system: 786-0; assay: as above; conditions: Homo sapiens
[16] = test system: ACHN; assay: as above; conditions: Homo sapiens
[17] = test system: HOP-62; assay: as above; conditions: Homo sapiens
[18] = test system: BT-549; assay: as above; conditions: Homo sapiens
[19] = test system: COLO 205; assay: as above; conditions: Homo sapiens
[20] = test system: HT29; assay: as above; conditions: Homo sapiens
[21] = test system: DU-145; assay: as above; conditions: Homo sapiens
[22] = test system: NCI/ADR-RES; assay: as above; conditions: Homo sapiens
[23] = test system: T-47D; assay: as above; conditions: Homo sapiens, T47D
[24] = test system: NCI-H23; assay: as above; conditions: Homo sapiens
[25] = test system: SR; assay: as above; conditions: Homo sapiens
[26] = test system: SK-MEL-28; assay: as above; conditions: Homo sapiens
[27] = test system: PC-3; assay: as above; conditions: Homo sapiens
[28] = test system: EKVX; assay: as above; conditions: Homo sapiens
[29] = test system: CCRF-CEM; assay: NCI-60 anticancer screen (SRB; single dose 10 μM and five doses); conditions: Homo sapiens
[30] = 48 h, read-out: Growth Percentage

COc1cc(/C=C/C(=O)c2sc(=S)[nH]c2C)cc(OC)c1OC [2p, (E)-1-(4-Methyl-2-Thioxo-2,3-Dihydrothiazol-5-yl)-3-(3,4,5-Trimethoxyphenyl)Prop-2-En-1-One]
GI50 ([1]; NCI-H460): 2140 nM | IC50 ([1]; NCI-H460): 3.31 µM | activity at 10 µM ([1]; NCI-H460, 48 h, read-out: Growth Percentage): -1.34% | CC50 ([1]; NCI-H460, read-out: LC50): 44.7 µM | IC (TGI) ([1]; NCI-H460, read-out: TGI): 5.62 µM | GI50 ([2]; KM12): 3.24 µM | IC50 ([2]; KM12): 6.46 µM | activity at 10 µM ([2]; KM12, 48 h, read-out: Growth Percentage): 9.52% | CC50 ([2]; KM12, read-out: LC50): 42.7 µM | IC (TGI) ([2]; KM12, read-out: TGI): 13.8 µM | GI50 ([3]; HCT-15): 3.24 µM | IC50 ([3]; HCT-15): 4.17 µM | activity at 10 µM ([3]; HCT-15, 48 h, read-out: Growth Percentage): -3.26% | CC50 ([3]; HCT-15, read-out: LC50): 74.1 µM | IC (TGI) ([3]; HCT-15, read-out: TGI): 15.5 µM | GI50 ([4]; A549): 3.55 µM | IC50 ([4]; A549): 5.01 µM | activity at 10 µM ([4]; A549, 48 h, read-out: Growth Percentage): 26.6% | CC50 ([4]; A549, read-out: LC50): 44.7 µM | IC (TGI) ([4]; A549, read-out: TGI): 13.8 µM | GI50 ([5]; K562): 3.02 µM | IC50 ([5]; K562): 3.72 µM | activity at 10 µM ([5]; K562, 48 h, read-out: Growth Percentage): 8.21% | CC50 ([5]; K562, read-out: LC50): > 100 µM | IC (TGI) ([5]; K562, read-out: TGI): > 100 µM | GI50 ([6]; Homo sapiens, SNB-75): 2190 nM | IC50 ([6]; Homo sapiens, SNB-75): 7.59 µM | CC50 ([6]; Homo sapiens, SNB-75, read-out: LC50): 28.8 µM | TGI ([6]; five-dose, CNS Cancer SNB-75): 6.17 µM | GI50 [7]: 3.24 µM | IC50 [7]: 4.47 µM | activity at 10 µM [7, 30]: 17.1% | CC50 ([7]; read-out: LC50): 38.9 µM | IC (TGI) ([7]; read-out: TGI): 12 µM | GI50 ([8]; RPMI-8226): 2190 nM | IC50 ([8]; RPMI-8226): 4.47 µM | activity at 10 µM ([8]; RPMI-8226, 48 h, read-out: Growth Percentage): 5.31% | CC50 ([8]; RPMI-8226, read-out: LC50): > 100 µM | IC (TGI) ([8]; RPMI-8226, read-out: TGI): 9.12 µM | GI50 ([9]; OVCAR-4): 2820 nM | IC50 ([9]; OVCAR-4): 6.61 µM | activity at 10 µM ([9]; OVCAR-4, 48 h, read-out: Growth Percentage): 15.6% | CC50 ([9]; OVCAR-4, read-out: LC50): 51.3 µM | IC (TGI) ([9]; OVCAR-4, read-out: TGI): 12.6 µM | GI50 ([10]; HOP-92): 2950 nM | IC50 ([10]; HOP-92): 44.7 µM | activity at 10 µM ([10]; HOP-92, 48 h, read-out: Growth Percentage): 16.4% | CC50 ([10]; HOP-92, read-out: LC50): > 100 µM | IC (TGI) ([10]; HOP-92, read-out: TGI): 19.9 µM | GI50 ([11]; Homo sapiens, HCC 2998): 5.13 µM | IC50 ([11]; Homo sapiens, HCC 2998): 11.8 µM | activity at 10 µM ([11]; Homo sapiens, HCC 2998, 48 h, read-out: Growth Percentage): 19% | CC50 ([11]; Homo sapiens, HCC 2998, read-out: LC50): 44.7 µM | TGI ([11]; five-dose, Colon Cancer HCC-2998): 17.38 µM | GI50 [12]: 2290 nM | IC50 [12]: 3.89 µM | activity at 10 µM [12, 30]: 7.3% | CC50 ([12]; read-out: LC50): 46.8 µM | IC (TGI) ([12]; read-out: TGI): 9.55 µM | GI50 ([13]; TK-10): 5.01 µM | IC50 ([13]; TK-10): 16.2 µM | activity at 10 µM ([13]; TK-10, 48 h, read-out: Growth Percentage): 53% | CC50 ([13]; TK-10, read-out: LC50): 47.9 µM | IC (TGI) ([13]; TK-10, read-out: TGI): 17.8 µM | GI50 ([14]; A498): 11.5 µM | IC50 ([14]; A498): 43.6 µM | activity at 10 µM ([14]; A498, 48 h, read-out: Growth Percentage, A498, dose of 10 μM): 96.5% | CC50 ([14]; A498, read-out: LC50): > 100 µM | IC (TGI) ([14]; A498, read-out: TGI): 34.7 µM | GI50 ([15]; 786-0): 4.57 µM | IC50 ([15]; 786-0): 6.61 µM | activity at 10 µM ([15]; 786-0, 48 h, read-out: Growth Percentage): 21.1% | CC50 ([15]; 786-0, read-out: LC50): 97.7 µM | IC (TGI) ([15]; 786-0, read-out: TGI): 20.9 µM | GI50 [16]: 3.89 µM | IC50 [16]: 6.46 µM | activity at 10 µM [16, 30]: 19.6% | CC50 ([16]; read-out: LC50): 55 µM | IC (TGI) ([16]; read-out: TGI): 16.6 µM | GI50 ([17]; HOP-62): 3.16 µM | IC50 ([17]; HOP-62): 5.37 µM | activity at 10 µM ([17]; HOP-62, 48 h, read-out: Growth Percentage): 4.61% | CC50 ([17]; HOP-62, read-out: LC50): > 100 µM | IC (TGI) ([17]; HOP-62, read-out: TGI): 16.2 µM | GI50 ([18]; BT-549): 2950 nM | IC50 ([18]; BT-549): 11.8 µM | activity at 10 µM ([18]; BT-549, 48 h, read-out: Growth Percentage): -11.8% | IC (TGI) ([18]; BT-549, read-out: TGI): 10.7 µM | GI50 ([19]; COLO 205): 16.2 µM | IC50 ([19]; COLO 205): 28.8 µM | activity at 10 µM ([19]; COLO 205, 48 h, read-out: Growth Percentage): 81.7% | CC50 ([19]; COLO 205, read-out: LC50): 70.8 µM | IC (TGI) ([19]; COLO 205, read-out: TGI): 33.9 µM | GI50 ([20]; HT-29): 3.47 µM | IC50 ([20]; HT-29): 4.57 µM | activity at 10 µM ([20]; HT-29, 48 h, read-out: Growth Percentage): 40.1% | CC50 ([20]; HT-29, read-out: LC50): > 100 µM | IC (TGI) ([20]; HT-29, read-out: TGI): 13.5 µM | GI50 ([21]; DU-145): 3.24 µM | IC50 ([21]; DU-145): 5.75 µM | activity at 10 µM ([21]; DU-145, 48 h, read-out: Growth Percentage): 12.9% | CC50 ([21]; DU-145, read-out: LC50): 69.2 µM | IC (TGI) ([21]; DU-145, read-out: TGI): 15.5 µM | GI50 [22]: 2400 nM | IC50 [22]: 4.37 µM | activity at 10 µM [22, 30]: 0.58% | CC50 ([22]; read-out: LC50): > 100 µM | IC (TGI) ([22]; read-out: TGI): 7.41 µM | GI50 [23]: 2190 nM | IC50 [23]: 7.24 µM | activity at 10 µM [23, 30]: -1.59% | CC50 ([23]; read-out: LC50): > 100 µM | IC (TGI) ([23]; read-out: TGI): 13.2 µM | GI50 ([24]; NCI-H23): 2950 nM | IC50 ([24]; NCI-H23): 5.25 µM | activity at 10 µM ([24]; NCI-H23, 48 h, read-out: Growth Percentage): 7.27% | CC50 ([24]; NCI-H23, read-out: LC50): 44.7 µM | IC (TGI) ([24]; NCI-H23, read-out: TGI): 10.5 µM | GI50 [25]: 2340 nM | IC50 [25]: 3.8 µM | CC50 ([25]; read-out: LC50): > 100 µM | IC (TGI) ([25]; read-out: TGI): 16.2 µM | GI50 ([26]; SK-MEL-28): 4.07 µM | IC50 ([26]; SK-MEL-28): 9.12 µM | activity at 10 µM ([26]; SK-MEL-28, 48 h, read-out: Growth Percentage): 24.2% | CC50 ([26]; SK-MEL-28, read-out: LC50): 57.5 µM | IC (TGI) ([26]; SK-MEL-28, read-out: TGI): 17.4 µM | GI50 ([27]; PC-3): 5.01 µM | IC50 ([27]; PC-3): 8.91 µM | activity at 10 µM ([27]; PC-3, 48 h, read-out: Growth Percentage): 35.7% | CC50 ([27]; PC-3, read-out: LC50): > 100 µM | IC (TGI) ([27]; PC-3, read-out: TGI): 41.7 µM | GI50 [28]: 4.07 µM | IC50 [28]: 11 µM | activity at 10 µM [28, 30]: 23.4% | CC50 ([28]; read-out: LC50): > 100 µM | IC (TGI) ([28]; read-out: TGI): 22.9 µM | GI50 [29]: 2450 nM | activity at 10 µM [29, 30]: 4.92% | IC50 ([29]; five-dose, Leukemia CCRF-CEM): 3.55 µM | IC (TGI) ([29]; read-out: TGI): 8.71 µM
